Laboratory results published in patent US20070043049A1, “Substituted heterocyclic diarylamine analogues” (Neurogen Corporation, priority 2003, published 2007).

Molecular target: T1, human capsaicin receptor (Homo sapiens, UniProt Q8NER1)
T1 construct: pBK-CMV expression construct encoding the full length human capsaicin receptor; expressed in transfected cells
Test: Calcium mobilization assay, determination of antagonist activity (Example 6)
Assay type: cell-based
Conditions: 50% decrease in fluorescence response of cells expressing human capsaicin receptor exposed to capsaicin
Method: A cDNA encoding full length human capsaicin receptor (SEQ ID NO:1, 2 or 3 of U.S. Pat. No. 6,482,611) was subcloned in the plasmid pBK-CMV (Stratagene, La Jolla, Calif.) for recombinant expression in mammalian cells.
Human embryonic kidney (HEK293) cells were transfected with the pBK-CMV expression construct encoding the full length human capsaicin receptor using standard methods. The transfected cells were selected for two weeks in media containing G418 (400 μg/ml) to obtain a pool of stably transfected cells. Independent clones were isolated from this pool by limiting dilution to obtain clonal stable cell lines for use in subsequent experiments.
Cells transfected with expression plasmids (as described in Example 4) and thereby expressing human capsaicin receptor are seeded and grown to 70-90% confluency in FALCON black-walled, clear-bottomed 96-well plates (#3904, BECTON-DICKINSON, Franklin Lakes, N.J.). The culture medium is emptied from the 96 well plates and FLUO-3 AM calcium sensitive dye (Molecular Probes, Eugene, Oreg.) is added to each well (dye solution: 1 mg FLUO-3 AM, 440 μL DMSO and 440 μl 20% pluronic acid in DMSO, diluted 1:250 in Krebs-Ringer HEPES (KRH) buffer (25 mM HEPES, 5 mM KCl, 0.96 mM NaH2PO4, 1 mM MgSO4, 2 mM CaCl2, 5 mM glucose, 1 mM probenecid, pH 7.4), 50 μl diluted solution per well). Plates are covered with aluminum foil and incubated at 37° C. for 1-2 hours in an environment containing 5% CO2. After the incubation, the dye is emptied from the plates, and the cells are washed once with KRH buffer, and resuspended in KRH buffer.
To measure the ability of a test compound to agonize or antagonize a calcium mobilization response in cells expressing capsaicin receptors to capsaicin or other vanilloid agonist, the EC50 of the agonist capsaicin is first determined. An additional 20 μl of KRH buffer and 1 μl DMSO is added to each well of cells, prepared as described above. 100 μl capsaicin in KRH buffer is automatically transferred by the FLIPR instrument to each well. Capsaicin-induced calcium mobilization is monitored using either FLUOROSKAN ASCENT (Labsystems; Franklin, Mass.) or FLIPR (fluorometric imaging plate reader system; Molecular Devices, Sunnyvale, Calif.) instruments. Data obtained between 30 and 60 seconds after agonist application are used to generate an 8-point concentration response curve, with final capsaicin concentrations of 1 nM to 3 μM. KALEIDAGRAPH software (Synergy Software, Reading, Pa.) is used to fit the data to the equation: y=a*(1/(1+(b/x)^c)) to determine the 50% excitatory concentration (EC50) for the response. In this equation, y is the maximum fluorescence signal, x is the concentration of the agonist or antagonist (in this case, capsaicin), a is the Emax, b corresponds to the EC50 value and c is the Hill coefficient. Determination of Agonist Activity
Test compounds are dissolved in DMSO, diluted in 20 μl KRH buffer so that the final concentration of test compounds in the assay well is between 1 μM and 5 μM, and added to cells prepared as described above. The 96 well plates containing prepared cells and test compounds are incubated in the dark, at room temperature for 0.5 to 6 hours. It is important that the incubation not continue beyond 6 hours. Just prior to determining the fluorescence response, 100 μl capsaicin in KRH buffer at twice the EC50 concentration determined as described above is automatically added by the FLIPR instrument to each well of the 96 well plate for a final sample volume of 200 μl and a final capsaicin concentration equal to the EC50. The final concentration of test compounds in the assay wells is between 1 μM and […]. […] The concentration of antagonist required to provide a 50% decrease, relative to the response observed in the presence of capsaicin and without antagonist, is the IC50 for the antagonist, and is preferably below 1 micromolar, 100 nanomolar, 10 nanomolar or 1 nanomolar.

T1 sequence (Q8NER1 whole entry): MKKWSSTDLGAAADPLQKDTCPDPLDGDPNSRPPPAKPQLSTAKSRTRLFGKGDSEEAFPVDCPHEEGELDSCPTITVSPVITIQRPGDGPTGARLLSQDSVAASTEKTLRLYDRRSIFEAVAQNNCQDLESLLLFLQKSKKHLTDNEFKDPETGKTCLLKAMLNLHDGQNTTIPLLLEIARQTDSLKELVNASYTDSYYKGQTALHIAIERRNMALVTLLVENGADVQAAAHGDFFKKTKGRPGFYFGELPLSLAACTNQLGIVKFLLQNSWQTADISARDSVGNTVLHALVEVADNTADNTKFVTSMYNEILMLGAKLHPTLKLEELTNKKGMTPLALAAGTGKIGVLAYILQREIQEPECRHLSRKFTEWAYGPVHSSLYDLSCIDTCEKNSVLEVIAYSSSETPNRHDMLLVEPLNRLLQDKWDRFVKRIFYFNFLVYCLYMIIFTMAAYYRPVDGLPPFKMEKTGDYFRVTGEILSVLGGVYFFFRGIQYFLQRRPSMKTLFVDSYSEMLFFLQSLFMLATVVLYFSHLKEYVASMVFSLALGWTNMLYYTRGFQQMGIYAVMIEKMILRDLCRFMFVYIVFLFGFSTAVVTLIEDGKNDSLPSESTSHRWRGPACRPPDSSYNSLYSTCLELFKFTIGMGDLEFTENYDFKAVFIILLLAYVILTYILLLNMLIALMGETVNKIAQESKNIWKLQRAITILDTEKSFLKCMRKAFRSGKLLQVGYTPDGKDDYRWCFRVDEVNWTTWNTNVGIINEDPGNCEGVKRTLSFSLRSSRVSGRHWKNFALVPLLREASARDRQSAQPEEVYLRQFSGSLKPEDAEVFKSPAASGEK

IC50 [nM]	Structure (SMILES)
≤ 1000	CCN(CC)c1nc(Nc2ccc(F)c(F)c2)nc(N2CCN(c3ncccc3C(F)(F)F)C[C@H]2C)n1 [Compound 99, N-(3,4-Difluoro-phenyl)-N′,N′-diethyl-6-[2-methyl-4-(3-trifluoromethyl-pyridin-2-yl)-piperazin-1-yl]-[1,3,5]triazine-2,4-diamine (R)]
≤ 1000	CCCN(C)c1nc(Nc2cccc(F)c2)nc(N2CCN(c3ncccc3Cl)CC2)n1 [Compound 74, 6-[4-(3-Chloro-pyridin-2-yl)-piperazin-1-yl]-N-(3-fluoro-phenyl)-N′-methyl-N′-propyl-[1,3,5]triazine-2,4-diamine]
≤ 1000	CC(C)N(C)c1nc(Nc2ccccc2)nc(N2CCN(c3ncccc3C(F)(F)F)CC2)n1 [Compound 55, N-Isopropyl-N-methyl-N′-phenyl-6-[4-(3-trifluoromethyl-pyridin-2-yl)-piperazin-1-yl]-[1,3,5]triazine-2,4-diamine]
≤ 1000	CCN(CC)c1nc(Nc2ccc(F)cc2)nc(N2CCN(c3ccccn3)CC2)n1 [Compound 94, N,N-Diethyl-N′-(4-fluoro-phenyl)-6-(4-pyridin-2-yl-piperazin-1-yl)-[1,3,5]triazine-2,4-diamine]
≤ 1000	Fc1ccc(Nc2nc(N3CCOCC3)nc(N3CCN(c4ncccc4Cl)CC3)n2)cc1F [Compound 68, {4-[4-(3-Chloro-pyridin-2-yl)-piperazin-1-yl]-6-morpholin-4-yl-[1,3,5]triazin-2-yl}-(3,4-difluoro-phenyl)-amine]
≤ 1000	CCN(CC)c1nc(Nc2cccc(OC)c2)nc(N2CCN(c3ncccc3Cl)CC2)n1 [Compound 93, 6-[4-(3-Chloro-pyridin-2-yl)-piperazin-1-yl]-N,N-diethyl-N′-(3-methoxy-phenyl)-[1,3,5]triazine-2,4-diamine]
≤ 1000	Fc1cccc(Nc2nc(N3CCOCC3)nc(N3CCN(c4ncccc4Cl)CC3)n2)c1 [Compound 60, {4-[4-(3-Chloro-pyridin-2-yl)-piperazin-1-yl]-6-morpholin-4-yl-[1,3,5]triazin-2-yl}-(3-fluoro-phenyl)-amine]
≤ 1000	Clc1ccc(Nc2nc(N3CCOCC3)nc(N3CCN(c4ncccc4Cl)CC3)n2)cc1 [Compound 62, (4-Chloro-phenyl)-{4-[4-(3-chloro-pyridin-2-yl)-piperazin-1-yl]-6-morpholin-4-yl-[1,3,5]triazin-2-yl}-amine]
≤ 1000	C[C@H]1CN(c2ncccc2Cl)CCN1c1nc(Nc2ccc(C(F)(F)F)cc2)nc(N(C)C)n1 [Compound 53, 6-[4-(3-Chloro-pyridin-2-yl)-2-methyl-piperazin-1-yl]-N,N-dimethyl-N′-(4-trifluoromethyl-phenyl)-[1,3,5]triazine-2,4-diamine (S)]
≤ 1000	Fc1ccc(Nc2cc(N3CCN(c4ccccn4)CC3)nc(N3CCOCC3)n2)cc1 [Compound 98, (4-Fluoro-phenyl)-[2-morpholin-4-yl-6-(4-pyridin-2-yl-piperazin-1-yl)-pyrimidin-4-yl]-amine]
≤ 1000	Fc1ccc(Nc2nc(N3CCOCC3)cc(N3CCN(c4ncccc4C(F)(F)F)CC3)n2)cc1 [Compound 83, (4-Fluoro-phenyl)-{4-morpholin-4-yl-6-[4-(3-trifluoromethyl-pyridin-2-yl)-piperazin-1-yl]-pyrimidin-2-yl}-amine]
≤ 1000	CCN(CC)c1nc(Nc2ccc(C#N)cc2)nc(N2CCN(c3ncccc3Cl)CC2)n1 [Compound 107, 4-{4-[4-(3-Chloro-pyridin-2-yl)-piperazin-1-yl]-6-diethylamino-[1,3,5]triazin-2-ylamino}-benzonitrile]
≤ 1000	C[C@@H]1CN(Cc2nc(Nc3ccc(F)c(F)c3)cc(N3CCN(c4ncccc4C(F)(F)F)CC3)n2)C[C@H](C)O1 [Compound 113, (3,4-Difluoro-phenyl)-{2-(2,6-dimethyl-morpholin-4-ylmethyl)-6-[4-(3-trifluoromethyl-pyridin-2-yl)-piperazin-1-yl]-pyrimidin-4-yl}-amine]

Second part, the compound before the results:

Structure (SMILES)	IC50 [nM]
CN(C)c1nc(Nc2ccccc2)nc(N2CCN(c3ncccc3C(F)(F)F)CC2)n1 [Compound 51, N,N-Dimethyl-N′-phenyl-6-[4-(3-trifluoromethyl-pyridin-2-yl)-piperazin-1-yl]-[1,3,5]triazine-2,4-diamine]	≤ 1000
CN(C)c1nc(Nc2ccc(C(F)(F)F)cc2)nc(N2CCN(c3ncccc3C(F)(F)F)CC2)n1 [Compound 20, N,N-Dimethyl-N′-(4-trifluoromethyl-phenyl)-6-[4-(3-trifluoromethyl-pyridin-2-yl)-piperazin-1-yl]-[1,3,5]triazine-2,4-diamine]	≤ 1000
FC(F)(F)c1ccc(Nc2nc(N3CCCCC3)nc(N3CCN(c4ncccc4Cl)CC3)n2)cc1 [Compound 52, {4-[4-(3-Chloro-pyridin-2-yl)-piperazin-1-yl]-6-piperidin-1-yl-[1,3,5]triazin-2-yl}-(4-trifluoromethyl-phenyl)-amine]	≤ 1000
C[C@H]1CN(c2ncccc2C(F)(F)F)CCN1c1nc(Nc2ccc(C(F)(F)F)cc2)nc(-c2ccccc2Cl)n1 [Compound 16, {4-(2-Chloro-phenyl)-6-[2-methyl-4-(3-trifluoromethyl-pyridin-2-yl)-piperazin-1-yl]-[1,3,5]triazin-2-yl}-(4-trifluoromethyl-phenyl)-amine (S)]	≤ 1000
CCCNc1nc(Nc2ccc(C(F)(F)F)cc2)nc(N2CCN(c3ncccc3Cl)C[C@H]2C)n1 [Compound 22, 6-[4-(3-Chloro-pyridin-2-yl)-2-methyl-piperazin-1-yl]-N-propyl-N′-(4-trifluoromethyl-phenyl)-[1,3,5]triazine-2,4-diamine (R)]	≤ 1000
CC(C)CCNc1nc(Nc2ccc(C(F)(F)F)cc2)nc(N2CCN(c3ncccc3Cl)C[C@H]2C)n1 [Compound 39, 6-[4-(3-Chloro-pyridin-2-yl)-2-methyl-piperazin-1-yl]-N-(3-methyl-butyl)-N′-(4-trifluoromethyl-phenyl)-[1,3,5]triazine-2,4-diamine (R)]	≤ 1000
CCCN(C)c1nc(Nc2ccc(C(F)(F)F)cc2)nc(N2CCN(c3ncccc3C(F)(F)F)CC2)n1 [Compound 48, N-Methyl-N-propyl-N′-(4-trifluoromethyl-phenyl)-6-[4-(3-trifluoromethyl-pyridin-2-yl)-piperazin-1-yl]-[1,3,5]triazine-2,4-diamine]	≤ 1000
CC(C)N(C)c1nc(Nc2ccc(C(F)(F)F)cc2)nc(N2CCN(c3ncccc3C(F)(F)F)CC2)n1 [Compound 47, N-Isopropyl-N-methyl-N′-(4-trifluoromethyl-phenyl)-6-[4-(3-trifluoromethyl-pyridin-2-yl)-piperazin-1-yl]-[1,3,5]triazine-2,4-diamine]	≤ 1000
CCCNc1nc(Nc2ccc(C(F)(C(F)(F)F)C(F)(F)F)cc2)nc(N2CCN(c3ncccc3Cl)C[C@H]2C)n1 [Compound 25, 6-[4-(3-Chloro-pyridin-2-yl)-2-methyl-piperazin-1-yl]-N-propyl-N′-[4-(1,2,2,2-tetrafluoro-1-trifluoromethyl-ethyl)-phenyl]-[1,3,5]triazine-2,4-diamine (R)]	≤ 1000
C[C@@H]1CN(c2ncccc2F)CCN1c1nc(Nc2ccc(C(C)(C)C)cc2)nc(OCc2ccccc2C(F)(F)F)n1 [Compound 7, (4-tert-Butyl-phenyl)-[4-[4-(3-fluoro-pyridin-2-yl)-2-methyl-piperazin-1-yl]-6-(2-trifluoromethyl-benzyloxy)-[1,3,5]triazin-2-yl]-amine (R)]	≤ 1000
